Experimental data reported in EP4707280A1, “1,4-CINEOLE DERIVATIVE AND INTERMEDIATE THEREOF, HERBICIDE CONTAINING SAID DERIVATIVE AS ACTIVE INGREDIENT, METHOD FOR USING HERBICIDE, AND METHOD FOR PREPARING AGROCHEMICAL COMPOSITION” (HOKKO CHEMICAL INDUSTRY CO., LTD., priority 2023, dated 2024).

Assays:
Format in all cases: in vivo
Scirpus juncoides [1] = experiment: Test Example 6: herbicidal effect test by application during growth period of paddy rice (low dose); details: Schoenoplectiella juncoides; 7.5 g per 10 ares; applied seven days after sowing, flooded pots; 14 days after application; read-out: weed inhibition rate
Method in brief: (§1)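 Low-dose water application, 7.5 g a.i. per 10 ares, given by dropper into flooded pots (about 3 cm depth) 7 days after sowing of 30 weed seeds each at 0–1 cm. Evaluation of inhibition (%) took place 14 days later, duplicate per rate.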

Monochoria vaginalis [2] = experiment: as above; details: Pontederia vaginalis; 7.5 g per 10 ares; applied seven days after sowing, flooded pots; 14 days after application; read-out: weed inhibition rate
Method in brief: as §1

[3] = test system: Echinochloa crus-galli var. formosensis; experiment: Test Example 5: herbicidal effect test by soil application in paddy rice (low dose); details: Echinochloa crus-galli, soil, 336 h; 7.5 g per 10 ares; applied immediately after sowing, flooded pots; 14 days after application; read-out: weed inhibition rate
Method in brief: (§2)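 Pre-emergence paddy test: seeds sown 0–1 cm (30 each), pots flooded ~3 cm, greenhouse. EC dilution dropped into water right after sowing, 7.5 g a.i./10 a. Duplicate pots; weed inhibition rate (%) by formula, day 14.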

Scirpus juncoides [4] = experiment: as above; details: Schoenoplectiella juncoides, 336 h, 7.5 g per 10 ares, applied immediately after sowing, flooded pots, 14 days after application, read-out: weed inhibition rate
Method in brief: as §2

Monochoria vaginalis [5] = experiment: as above; details: Pontederia vaginalis, 336 h, 7.5 g per 10 ares, applied immediately after sowing, flooded pots, 14 days after application, read-out: weed inhibition rate
Method in brief: as §2

Digitaria ciliaris = experiment: Test Example 7: herbicidal effect test by soil application in upland field (low dose); details: Digitaria ciliaris, 7.5 g per 10 ares, sprayed one day after sowing, 14 days after application, read-out: weed inhibition rate
Method in brief: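 Read-out: weed inhibition rate (%) at 14 d post-treatment, duplicate pots per concentration. Seeds sown in the top 1 cm of upland alluvial loam; emulsifiable concentrate diluted in water and sprayed on the soil surface 1 d after sowing at 7.5 g a.i./10 a (100 L/10 a spray volume).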

[6] = test system: Echinochloa crus-galli var. formosensis; experiment: Test Example 2: herbicidal effect test by application during growth period of paddy rice; details: Echinochloa crus-galli; 120 g per 10 ares; applied seven days after sowing, flooded pots; 14 days after application; read-out: weed inhibition rate
Method in brief: (§3)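 Flooded paddy pot test, greenhouse. Seeds 30/species, 0–1 cm depth, water ~3 cm. EC diluted in water, dropper-applied 7 d post-sowing at 120 g a.i./10 a. Inhibition rate (%) read 14 d after treatment; n=2.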

Scirpus juncoides [7] = experiment: as above; details: Schoenoplectiella juncoides; 120 g per 10 ares; applied seven days after sowing, flooded pots; 14 days after application; read-out: weed inhibition rate
Method in brief: as §3

Monochoria vaginalis [8] = experiment: as above; details: Pontederia vaginalis; 120 g per 10 ares; applied seven days after sowing, flooded pots; 14 days after application; read-out: weed inhibition rate
Method in brief: as §3

Amaranthus viridis = experiment: Test Example 3: herbicidal effect test by soil application in upland field; details: Amaranthus viridis, 120 g per 10 ares, sprayed one day after sowing, 14 days after application, read-out: weed inhibition rate
Method in brief: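 Pre-emergence test: seeds mixed into top 1 cm of alluvial loam upland soil in pots; emulsifiable concentrate diluted in water sprayed on soil one day after sowing at 100 L/10 a, 120 g a.i./10 a. Weed inhibition rate (%) scored at 14 days, in duplicate.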

CC(C)[C@]12C[C@@H](OCc3ccccc3)[C@](C)(C[C@@H]1Br)O2 [1-15, (1S,2R,4R,5S)-5-bromo-1-methyl-2-phenylmethoxy-4-isopropyl-7-oxabicyclo[2.2.1]heptane]
≥ 80%: inhibition at 75 g/ha (Scirpus juncoides [1]) | inhibition at 75 g/ha (Monochoria vaginalis [2]) | inhibition at 75 g/ha [3] | inhibition at 75 g/ha (Scirpus juncoides [4]) | inhibition at 75 g/ha (Monochoria vaginalis [5]) | inhibition at 75 g/ha (Digitaria ciliaris) | inhibition at 1200 g/ha [6] | inhibition at 1200 g/ha (Scirpus juncoides [7]) | inhibition at 1200 g/ha (Monochoria vaginalis [8])

CC(C)[C@]12C[C@@H](OCc3c(F)cccc3F)[C@](C)(C[C@@H]1Br)O2 [1-21, (1S,2R,4R,5S)-5-bromo-2-[(2,6-difluorophenyl)methoxy]-1-methyl-4-isopropyl-7-oxabicyclo[2.2.1]heptane]
≥ 80%: inhibition at 75 g/ha (Scirpus juncoides [1]) | inhibition at 75 g/ha (Monochoria vaginalis [2]) | inhibition at 75 g/ha [3] | inhibition at 75 g/ha (Scirpus juncoides [4]) | inhibition at 75 g/ha (Monochoria vaginalis [5]) | inhibition at 75 g/ha (Digitaria ciliaris) | inhibition at 1200 g/ha [6] | inhibition at 1200 g/ha (Scirpus juncoides [7]) | inhibition at 1200 g/ha (Monochoria vaginalis [8])

Cc1ccccc1CO[C@@H]1C[C@]2(C(C)C)O[C@@]1(C)C[C@@H]2O [1-24, (1R,2S,4S,5R)-1-isopropyl-4-methyl-5-((2-methylbenzyl)oxy)-7-oxabicyclo[2.2.1]heptan-2-ol]
≥ 80%: inhibition at 75 g/ha (Scirpus juncoides [1]) | inhibition at 75 g/ha (Monochoria vaginalis [2]) | inhibition at 75 g/ha [3] | inhibition at 75 g/ha (Scirpus juncoides [4]) | inhibition at 75 g/ha (Monochoria vaginalis [5]) | inhibition at 75 g/ha (Digitaria ciliaris) | inhibition at 1200 g/ha [6] | inhibition at 1200 g/ha (Scirpus juncoides [7]) | inhibition at 1200 g/ha (Monochoria vaginalis [8])

CO[C@H]1C[C@]2(C)O[C@@]1(C(C)C)C[C@H]2OCc1ccccc1C [1-151, (1 S,2R,4R,5S)-4-isopropyl-5-methoxy-l-methyl-2-((2-methylbenzyl)oxy)-7-oxabicyclo[2.2.1]heptane]
≥ 80%: inhibition at 75 g/ha (Scirpus juncoides [1]) | inhibition at 75 g/ha [3] | inhibition at 75 g/ha (Scirpus juncoides [4]) | inhibition at 75 g/ha (Digitaria ciliaris) | inhibition at 1200 g/ha [6] | inhibition at 1200 g/ha (Scirpus juncoides [7]) | inhibition at 1200 g/ha (Monochoria vaginalis [8])

CCOC(C)O[C@H]1C[C@]2(C)O[C@@]1(C(C)C)C[C@H]2OCc1c(F)cccc1F (stereo partly drawn) [1-223, (1S,2R,4R,5S)-2-((2,6-difluorobenzyl)oxy)-5-(1-ethoxyethoxy)-4-isopropyl-1-methyl-7-oxabicyclo[2.2.1]heptane]
≥ 80%: inhibition at 75 g/ha [3] | inhibition at 1200 g/ha (Amaranthus viridis) | inhibition at 75 g/ha (Digitaria ciliaris) | inhibition at 1200 g/ha [6] | inhibition at 1200 g/ha (Scirpus juncoides [7])

CC(C)=CCO[C@@H]1C[C@]2(C(C)C)O[C@@]1(C)C[C@@H]2Br [1-672, (1S,2R,4R,5S)-5-bromo-1-methyl-2-(3-methylbut-2-enoxy)-4-isopropyl-7-oxabicyclo[2.2.1]heptane]
≥ 80%: inhibition at 75 g/ha (Monochoria vaginalis [2]) | inhibition at 75 g/ha [3] | inhibition at 75 g/ha (Scirpus juncoides [4]) | inhibition at 75 g/ha (Monochoria vaginalis [5]) | inhibition at 1200 g/ha (Amaranthus viridis) | inhibition at 1200 g/ha [6] | inhibition at 1200 g/ha (Scirpus juncoides [7]) | inhibition at 1200 g/ha (Monochoria vaginalis [8])

Cc1ccc(CO[C@@H]2C[C@]3(C(C)C)O[C@@]2(C)C[C@@H]3Br)cc1 [1-681, (1S,2R,4R,5S)-5-bromo-1-methyl-2-[(4-methylphenyl)methoxy]-4-isopropyl-7-oxabicyclo[2.2.1]heptane]
≥ 80%: inhibition at 75 g/ha (Scirpus juncoides [1]) | inhibition at 75 g/ha (Monochoria vaginalis [2]) | inhibition at 75 g/ha [3] | inhibition at 1200 g/ha [6] | inhibition at 1200 g/ha (Scirpus juncoides [7]) | inhibition at 1200 g/ha (Monochoria vaginalis [8])

CC(C)[C@]12C[C@@H](OCc3ccccc3Br)[C@](C)(C[C@@H]1Br)O2 [1-694, (1S,2R,4R,5S)-5-bromo-2-[(2-bromophenyl)methoxy]-1-methyl-4-isopropyl-7-oxabicyclo[2.2.1]heptane]
≥ 80%: inhibition at 75 g/ha (Monochoria vaginalis [2]) | inhibition at 75 g/ha [3] | inhibition at 75 g/ha (Monochoria vaginalis [5]) | inhibition at 1200 g/ha (Amaranthus viridis) | inhibition at 75 g/ha (Digitaria ciliaris) | inhibition at 1200 g/ha [6] | inhibition at 1200 g/ha (Monochoria vaginalis [8])

CC(C)[C@]12C[C@@H](OCc3ccccc3C#N)[C@](C)(C[C@@H]1Br)O2 [1-703, 2-[[(1S,2R,4R,5S)-5-bromo-1-methyl-4-isopropyl-7-oxabicyclo[2.2.1]heptan-2-yl]oxymethyl]benzonitrile]
≥ 80%: inhibition at 75 g/ha [3] | inhibition at 1200 g/ha (Amaranthus viridis) | inhibition at 1200 g/ha [6] | inhibition at 1200 g/ha (Scirpus juncoides [7]) | inhibition at 1200 g/ha (Monochoria vaginalis [8])

CC(C)[C@]12C[C@@H](OCc3ccccc3F)[C@](C)(C[C@@H]1I)O2 [1-753, (1S,2R,4R,SS)-2-[(2-fluorophenyl)methoxy]-5-iodo-1-methyl-4-isopropyl-7-oxabicyclo[2.2.1]heptane]
≥ 80%: inhibition at 75 g/ha (Monochoria vaginalis [2]) | inhibition at 75 g/ha [3] | inhibition at 75 g/ha (Scirpus juncoides [4]) | inhibition at 75 g/ha (Monochoria vaginalis [5]) | inhibition at 1200 g/ha (Amaranthus viridis) | inhibition at 75 g/ha (Digitaria ciliaris) | inhibition at 1200 g/ha [6] | inhibition at 1200 g/ha (Scirpus juncoides [7]) | inhibition at 1200 g/ha (Monochoria vaginalis [8])

C=CCO[C@H]1C[C@]2(C)O[C@@]1(C(C)C)C[C@H]2OCc1ccccc1F [1-1602, (1S,2R,4R,5S)-2-[(2-fluorophenyl)methoxy]-1-methyl-4-isopropyl-5-prop-2-enoxy-7-oxabicyclo[2.2.1]heptane]
≥ 80%: inhibition at 75 g/ha (Scirpus juncoides [1]) | inhibition at 75 g/ha (Monochoria vaginalis [2]) | inhibition at 75 g/ha [3] | inhibition at 75 g/ha (Scirpus juncoides [4]) | inhibition at 75 g/ha (Digitaria ciliaris) | inhibition at 1200 g/ha [6] | inhibition at 1200 g/ha (Scirpus juncoides [7]) | inhibition at 1200 g/ha (Monochoria vaginalis [8])

CC(C)[C@]12C[C@@H](OCc3ccccc3F)[C@](C)(C/C1=N\O)O2 [2-197, (1R,4S,5R,E)-5-((2-fluorobenzyl)oxy)-1-isopropyl-4-methyl-7-oxabicyclo[2.2.1]heptan-2-one oxime]
≥ 80%: inhibition at 75 g/ha (Monochoria vaginalis [2]) | inhibition at 75 g/ha [3] | inhibition at 75 g/ha (Monochoria vaginalis [5]) | inhibition at 1200 g/ha (Amaranthus viridis) | inhibition at 75 g/ha (Digitaria ciliaris) | inhibition at 1200 g/ha [6] | inhibition at 1200 g/ha (Scirpus juncoides [7]) | inhibition at 1200 g/ha (Monochoria vaginalis [8])

CC(C)[C@]12C[C@@H](OCc3cccc(F)c3)[C@](C)(CC1=O)O2 [2-351, (1R,4S,5R)-5-((3-fluorobenzyl)oxy)-1-isopropyl-4-methyl-7-oxabicyclo[2.2.1]heptan-2-one]
≥ 80%: inhibition at 75 g/ha [3] | inhibition at 75 g/ha (Scirpus juncoides [4]) | inhibition at 75 g/ha (Monochoria vaginalis [5]) | inhibition at 1200 g/ha (Amaranthus viridis) | inhibition at 1200 g/ha [6] | inhibition at 1200 g/ha (Scirpus juncoides [7]) | inhibition at 1200 g/ha (Monochoria vaginalis [8])

CC(C)[C@]12C=C[C@](C)(O1)[C@H](OCc1c(F)cccc1F)C2 [3-7, (1R,4S,5R)-5-[(2,6-difluorophenyl)methoxy]-4-methyl-1-isopropyl-7-oxabicyclo[2.2.1]hept-2-ene]
≥ 80%: inhibition at 75 g/ha (Scirpus juncoides [1]) | inhibition at 75 g/ha [3] | inhibition at 75 g/ha (Scirpus juncoides [4]) | inhibition at 75 g/ha (Monochoria vaginalis [5]) | inhibition at 75 g/ha (Digitaria ciliaris) | inhibition at 1200 g/ha [6] | inhibition at 1200 g/ha (Scirpus juncoides [7])
